Source: US4115541A (priority 1975, dated 1978)
Like-named read-outs stand apart in the source and are kept apart here.

Assays:
[1] = Distribution of 99mTc-Sn-AEDP and 85Sr in rabbits, carrier effect of AEDP (Example 4); format: in vivo, rabbit; settings: 2 Hrs.
Procedure: Adult New Zealand albino rabbits having an average weight of 3.8 kg were utilized. Strontium-85 was employed as a standard for comparison. […] Each dosage is contained in a volume of 1 ml.
The animals were sacrificed serially from 1 to 24 hours after injection and the activities in major organs were determined by counting multiple samples from each organ in a scintillation well counter (the technetium-99m counts were corrected for the Compton contributions from the strontium-85 activity in the technetium-99m energy window). Multiple samples were counted from the tibia, femur, spine and pelvic bones; the total activity in the skeleton was estimated by assuming the whole skeleton consisted of equal proportions by weight of tibia, spine, femur and pelvis and that the skeletal mass was 10% of the body weight. The red marrow was sampled from the femur and the total marrow was assumed to be 2.2% of the total body weight. Similarly, blood volume was assumed to be 7% and the skeletal muscle 43% of the body weight. The whole liver and both kidneys were weighed and multiple samples from each were counted to measure the total activity in each organ.
In another series of experiments carried out as described in Example 2, the distribution of technetium 99m from its 99m-technetium-tin-methylene diphosphonate complex was determined in albino rabbits, again in comparison with strontium-85.
The distribution of technetium 99m from its 99m technetium-tin-1-amino-ethane-1,1-diphosphonate complex was determined as in Example 3 and compared with the distribution of strontium-85.

[2] = rabbits i.v., ~1 mg/kg EHDP
[3] = rabbits, 2 Hrs.
[4] = rabbits, 2 Hrs.; remark: listed apart in the source
[5] = physical; cited from earlier work

[85Sr+2].[Cl-].[Cl-] [^85 Sr, 85Sr chloride, reference compound]
Blood, % Dose in Whole Organ ([1]; AEDP 0.05 mg/kg): 2.50 % Dose | Liver, % Dose in Whole Organ ([1]; AEDP 0.5 mg/kg): 0.720 % Dose | Blood, % dose/1% body weight ([2]; 1 Hr.): 1.70 % dose/1% body weight | Bone(Avg), % dose in whole organ ([2]; 1 Hr.): 56.0 % dose | Bone(Avg), % dose/1% body weight ([2]; 1 Hr.): 5.60 % dose/1% body weight | Femur, % dose/1% body weight ([2]; 1 Hr.): 4.90 % dose/1% body weight | Kidneys, % Dose in Whole Organ ([2]; 1 Hr.): 0.80 % dose | Kidneys, % dose/1% body weight ([2]; 1 Hr.): 1.75 % dose/1% body weight | Liver, % dose/1% body weight ([2]; 1 Hr.): 0.59 % dose/1% body weight | Marrow, % Dose in Whole Organ ([2]; 1 Hr.): 0.91 % dose | Marrow, % dose/1% body weight ([2]; 1 Hr.): 0.41 % dose/1% body weight | Muscle, % dose/1% body weight ([2]; 1 Hr.): 0.31 % dose/1% body weight | Pelvis, % dose/1% body weight ([2]; 1 Hr.): 7.07 % dose/1% body weight | Spine, % dose/1% body weight ([2]; 1 Hr.): 7.03 % dose/1% body weight | Tibia, % dose/1% body weight ([2]; 1 Hr.): 3.62 % dose/1% body weight | Blood, % dose/1% body weight ([2]; 2 Hrs): 1.01 % dose/1% body weight | Bone(Avg), % dose/1% body weight ([2]; 2 Hrs): 6.44 % dose/1% body weight | Femur, % dose/1% body weight ([2]; 2 Hrs): 5.74 % dose/1% body weight | Kidneys, % Dose in Whole Organ ([2]; 2 Hrs): 0.64 % dose | Kidneys, % dose/1% body weight ([2]; 2 Hrs): 1.40 % dose/1% body weight | Liver, % dose/1% body weight ([2]; 2 Hrs): 0.43 % dose/1% body weight | Marrow, % Dose in Whole Organ ([2]; 2 Hrs): 0.76 % dose | Marrow, % dose/1% body weight ([2]; 2 Hrs): 0.34 % dose/1% body weight | Muscle, % Dose in Whole Organ ([2]; 2 Hrs): 8.8 % dose | Muscle, % dose/1% body weight ([2]; 2 Hrs): 0.21 % dose/1% body weight | Pelvis, % dose/1% body weight ([2]; 2 Hrs): 7.70 % dose/1% body weight | Spine, % dose/1% body weight ([2]; 2 Hrs): 7.59 % dose/1% body weight | Tibia, % dose/1% body weight ([2]; 2 Hrs): 4.73 % dose/1% body weight | Urine, % Dose ([2]; 2 Hrs): 18.0 % dose | Blood, % dose/1% body weight ([2]; 4 Hrs): 0.55 % dose/1% body weight | Bone(Avg), % dose/1% body weight ([2]; 4 Hrs): 6.81 % dose/1% body weight | Femur, % dose/1% body weight ([2]; 4 Hrs): 6.17 % dose/1% body weight | Kidneys, % Dose in Whole Organ ([2]; 4 Hrs): 0.34 % dose | Kidneys, % dose/1% body weight ([2]; 4 Hrs): 0.71 % dose/1% body weight | Liver, % dose/1% body weight ([2]; 4 Hrs): 0.26 % dose/1% body weight | Marrow, % Dose in Whole Organ ([2]; 4 Hrs): 0.50 % dose | Marrow, % dose/1% body weight ([2]; 4 Hrs): 0.23 % dose/1% body weight | Muscle, % dose/1% body weight ([2]; 4 Hrs): 0.15 % dose/1% body weight | Pelvis, % dose/1% body weight ([2]; 4 Hrs): 8.02 % dose/1% body weight | Spine, % dose/1% body weight ([2]; 4 Hrs): 7.82 % dose/1% body weight | Tibia, % dose/1% body weight ([2]; 4 Hrs): 5.13 % dose/1% body weight | Blood, % Dose in Whole Organ ([2]; 24 Hrs): 0.29 % dose | Blood, % dose/1% body weight ([2]; 24 Hrs): 0.04 % dose/1% body weight | Bone(Avg), % dose/1% body weight ([2]; 24 Hrs): 5.21 % dose/1% body weight | Femur, % dose/1% body weight ([2]; 24 Hrs): 4.83 % dose/1% body weight | Kidneys, % Dose in Whole Organ ([2]; 24 Hrs): 0.03 % dose | Kidneys, % dose/1% body weight ([2]; 24 Hrs): 0.06 % dose/1% body weight | Liver, % dose/1% body weight ([2]; 24 Hrs): 0.02 % dose/1% body weight | Marrow, % Dose in Whole Organ ([2]; 24 Hrs): 0.10 % dose | Marrow, % dose/1% body weight ([2]; 24 Hrs): 0.05 % dose/1% body weight | Muscle, % Dose in Whole Organ ([2]; 24 Hrs): 1.00 % dose | Pelvis, % dose/1% body weight ([2]; 24 Hrs): 5.26 % dose/1% body weight | Spine, % dose/1% body weight ([2]; 24 Hrs): 6.47 % dose/1% body weight | Tibia, % dose/1% body weight ([2]; 24 Hrs): 4.27 % dose/1% body weight | Ave Bone, % Dose/1% body weight ([3]; MDP 0.01 mg/kg): 11.85 % Dose/1% body weight | Blood, % dose/1% body weight ([3]; MDP 0.01 mg/kg): 0.47 % Dose/1% body weight | Femur, % dose/1% body weight ([3]; MDP 0.01 mg/kg): 13.93 % Dose/1% body weight | Kidneys, % Dose in Whole Organ ([3]; MDP 0.01 mg/kg): 0.34 % Dose | Kidneys, % dose/1% body weight ([3]; MDP 0.01 mg/kg): 0.54 % Dose/1% body weight | Liver, % Dose in Whole Organ ([3]; MDP 0.01 mg/kg): 0.65 % Dose | Liver, % dose/1% body weight ([3]; MDP 0.01 mg/kg): 0.16 % Dose/1% body weight | Marrow, % Dose in Whole Organ ([3]; MDP 0.01 mg/kg): 0.53 % Dose | Marrow, % dose/1% body weight ([3]; MDP 0.01 mg/kg): 0.24 % Dose/1% body weight | Muscle, % dose/1% body weight ([3]; MDP 0.01 mg/kg): 0.13 % Dose/1% body weight | Pelvis, % dose/1% body weight ([3]; MDP 0.01 mg/kg): 13.55 % Dose/1% body weight | Spine, % dose/1% body weight ([3]; MDP 0.01 mg/kg): 12.78 % Dose/1% body weight | Tibia, % dose/1% body weight ([3]; MDP 0.01 mg/kg): 7.14 % Dose/1% body weight | Ave Bone, % Dose/1% body weight ([3]; MDP 0.05 mg/kg): 7.29 % Dose/1% body weight | Blood, % dose/1% body weight ([3]; MDP 0.05 mg/kg): 0.52 % Dose/1% body weight | Femur, % dose/1% body weight ([3]; MDP 0.05 mg/kg): 9.10 % Dose/1% body weight | Kidneys, % Dose in Whole Organ ([3]; MDP 0.05 mg/kg): 0.46 % Dose | Kidneys, % dose/1% body weight ([3]; MDP 0.05 mg/kg): 0.9 % Dose/1% body weight | Liver, % Dose in Whole Organ ([3]; MDP 0.05 mg/kg): 0.71 % Dose | Liver, % dose/1% body weight ([3]; MDP 0.05 mg/kg): 0.22 % Dose/1% body weight | Marrow, % Dose in Whole Organ ([3]; MDP 0.05 mg/kg): 0.53 % Dose | Marrow, % dose/1% body weight ([3]; MDP 0.05 mg/kg): 0.24 % Dose/1% body weight | Muscle, % dose/1% body weight ([3]; MDP 0.05 mg/kg): 0.14 % Dose/1% body weight | Pelvis, % dose/1% body weight ([3]; MDP 0.05 mg/kg): 8.33 % Dose/1% body weight | Spine, % dose/1% body weight ([3]; MDP 0.05 mg/kg): 6.75 % Dose/1% body weight | Tibia, % dose/1% body weight ([3]; MDP 0.05 mg/kg): 4.94 % Dose/1% body weight | Ave Bone, % Dose/1% body weight ([3]; MDP 0.1 mg/kg): 9.17 % Dose/1% body weight | Blood, % dose/1% body weight ([3]; MDP 0.1 mg/kg): 0.56 % Dose/1% body weight | Femur, % dose/1% body weight ([3]; MDP 0.1 mg/kg): 10.0 % Dose/1% body weight | Kidneys, % Dose in Whole Organ ([3]; MDP 0.1 mg/kg): 0.66 % Dose | Kidneys, % dose/1% body weight ([3]; MDP 0.1 mg/kg): 1.00 % Dose/1% body weight | Liver, % dose/1% body weight ([3]; MDP 0.1 mg/kg): 0.30 % Dose/1% body weight | Marrow, % Dose in Whole Organ ([3]; MDP 0.1 mg/kg): 0.57 % Dose | Marrow, % dose/1% body weight ([3]; MDP 0.1 mg/kg): 0.26 % Dose/1% body weight | Muscle, % dose/1% body weight ([3]; MDP 0.1 mg/kg): 0.22 % Dose/1% body weight | One femur, % dose in whole organ ([3]; MDP 0.1 mg/kg): 2.80 % Dose | Pelvis, % dose/1% body weight ([3]; MDP 0.1 mg/kg): 12.2 % Dose/1% body weight | Spine, % dose/1% body weight ([3]; MDP 0.1 mg/kg): 8.45 % Dose/1% body weight | Tibia, % dose/1% body weight ([3]; MDP 0.1 mg/kg): 6.05 % Dose/1% body weight | Ave Bone, % Dose/1% body weight ([3]; MDP 0.5 mg/kg): 8.77 % Dose/1% body weight | Blood, % dose/1% body weight ([3]; MDP 0.5 mg/kg): 0.45 % Dose/1% body weight | Femur, % dose/1% body weight ([3]; MDP 0.5 mg/kg): 11.32 % Dose/1% body weight | Kidneys, % Dose in Whole Organ ([3]; MDP 0.5 mg/kg): 0.45 % Dose | Kidneys, % dose/1% body weight ([3]; MDP 0.5 mg/kg): 0.69 % Dose/1% body weight | Liver, % Dose in Whole Organ ([3]; MDP 0.5 mg/kg): 0.69 % Dose | Liver, % dose/1% body weight ([3]; MDP 0.5 mg/kg): 0.23 % Dose/1% body weight | Marrow, % Dose in Whole Organ ([3]; MDP 0.5 mg/kg): 0.67 % Dose | Marrow, % dose/1% body weight ([3]; MDP 0.5 mg/kg): 0.30 % Dose/1% body weight | Muscle, % dose/1% body weight ([3]; MDP 0.5 mg/kg): 0.13 % Dose/1% body weight | Pelvis, % dose/1% body weight ([3]; MDP 0.5 mg/kg): 8.68 % Dose/1% body weight | Spine, % dose/1% body weight ([3]; MDP 0.5 mg/kg): 8.92 % Dose/1% body weight | Tibia, % dose/1% body weight ([3]; MDP 0.5 mg/kg): 6.16 % Dose/1% body weight | Kidneys, % Dose in Whole Organ ([4]; EHDP 0.01 mg/kg): 0.43 % Dose | Liver, % Dose in Whole Organ ([4]; EHDP 0.01 mg/kg): 0.74 % Dose | Marrow, % Dose in Whole Organ ([4]; EHDP 0.01 mg/kg): 0.42 % Dose | One Tibia, % Dose in Whole Organ ([4]; EHDP 0.01 mg/kg): 2.60 % Dose | Kidneys, % Dose in Whole Organ ([4]; EHDP 0.05 mg/kg): 0.46 % Dose | Liver, % Dose in Whole Organ ([4]; EHDP 0.05 mg/kg): 0.77 % Dose | Marrow, % Dose in Whole Organ ([4]; EHDP 0.05 mg/kg): 0.61 % Dose | Blood, % Dose in Whole Organ ([4]; EHDP 0.1 mg/kg): 3.10 % Dose | Kidneys, % Dose in Whole Organ ([4]; EHDP 0.1 mg/kg): 0.30 % Dose | Liver, % Dose in Whole Organ ([4]; EHDP 0.1 mg/kg): 0.64 % Dose | Marrow, % Dose in Whole Organ ([4]; EHDP 0.1 mg/kg): 0.43 % Dose | Muscle, % Dose in Whole Organ ([4]; EHDP 0.1 mg/kg): 5.0 % Dose | Kidneys, % Dose in Whole Organ ([4]; EHDP 0.5 mg/kg): 0.48 % Dose | Liver, % Dose in Whole Organ ([4]; EHDP 0.5 mg/kg): 0.76 % Dose | Marrow, % Dose in Whole Organ ([4]; EHDP 0.5 mg/kg): 0.34 % Dose | Urine, % Dose ([4]; EHDP 0.5 mg/kg): 19.67 % Dose | half-life (radionuclide) [5]: 65 days
